Assay results published in paper PMC6364417, “Kinase inhibitor library screening identifies synergistic drug combinations effective in sensitive and resistant melanoma cells” (Journal of Experimental & Clinical Cancer Research : CR, 2019).
Like-named read-outs stand apart in the source and are kept apart here.

Columns and labels:
[1] = tested on: IGR37-GP cells (Dabrafenib-resistant); assay: Dose-response curves and IC50, PrestoBlue cell viability, 72 h; details: read-out: Half-maximal inhibitory concentration (IC50)
A375 cells (parental) [2] = assay: as above; format: cell-based, human; details: read-out: Half-maximal inhibitory concentration value (IC50), Mean
501Mel cells (parental) [3] = assay: as above; details: read-out: Half-maximal inhibitory concentration (IC50)
Method: (§1) All inhibitors used in this study were purchased from Selleck Chemicals (Houston, USA). They were dissolved in DMSO to a stock concentration of 10 mM according to the manufacturer’s instructions and stored at − 80 °C. […] Cell viability was measured with the PrestoBlue Cell Viability Reagent (ThermoFisher Scientific) on a CLARIOstar Monochromator microplate reader (BMG Labtech). Using the GraphPad Prism v5.04 software, the half-maximal inhibitor concentration values (IC50) were determined from the curve using the nonlinear log (inhibitor) vs response-variable slope (four parameters) equation. […] The IC50’s were determined for 3 biological replicates and are listed with their standard deviations.
(§2) Values represent the mean of at least three biological replicates; one representative curve of at least 3 biological replicates is depicted. _XP: cells resistant to Vemurafenib (red), _GP: cells resistant to Dabrafenib (green).

[4] = tested on: 501Mel-XP cells (Vemurafenib-resistant); assay: as above; details: read-out: Half-maximal inhibitory concentration (IC50)
[5] = tested on: A375-XP cells (Vemurafenib-resistant); assay: as above; format: cell-based, human; details: n.e. = did not suppress growth below 50% in the tested concentration range, read-out: Half-maximal inhibitory concentration value (IC50), Mean
[6] = tested on: 501Mel-GP cells (Dabrafenib-resistant); assay: as above; details: read-out: Half-maximal inhibitory concentration (IC50)
Method: as §1

[7] = tested on: IGR37-XP cells (Vemurafenib-resistant); assay: as above; details: read-out: Half-maximal inhibitory concentration (IC50)
Method: as §1, §2

IGR37 cells (parental) [8] = assay: as above; details: read-out: Half-maximal inhibitory concentration (IC50)
[9] = tested on: A375-GP cells (Dabrafenib-resistant); assay: as above; format: cell-based, human; details: n.e. = did not suppress growth below 50% in the tested concentration range, read-out: Half-maximal inhibitory concentration value (IC50), Mean
501Mel cells (parental) [10] = assay: Kinase inhibitor library screening, PrestoBlue cell viability, 1 or 10 μM, 72 h; details: 501Mel Parental
Method in brief: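 PrestoBlue viability readout after 72 h exposure to each inhibitor at 1 or 10 μM, reported relative to untreated cells as % viability. Lines tested: sensitive parental plus derivatives resistant to Vemurafenib (XP) or Dabrafenib (GP), each run at least in duplicate.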

IGR37 cells (parental) [11] = assay: as above; details: IGR37 Parental
[12] = tested on: IGR37-XP cells (Vemurafenib-resistant); assay: as above; details: IGR37 XP
[13] = tested on: A375-GP cells (Dabrafenib-resistant); assay: as above; details: A375 GP
A375 cells (parental) [14] = assay: as above; details: A375 Parental
[15] = tested on: IGR37-GP cells (Dabrafenib-resistant); assay: as above; details: IGR37 GP
[16] = tested on: 501Mel-GP cells (Dabrafenib-resistant); assay: as above; details: 501Mel GP
[17] = tested on: A375-XP cells (Vemurafenib-resistant); assay: as above; details: A375 XP
[18] = tested on: 501Mel-XP cells (Vemurafenib-resistant); assay: as above; details: 501Mel XP
A375 cells = assay: Synergy determination with the Chou-Talalay method (CompuSyn), cell viability 72 h; format: cell-based, human; details: 72 h cell viability, Chou-Talalay / Synergyfinder
Method: The Chou-Talalay method to determine possible synergistic effects of selected kinase inhibitor combinations was used as described in [19]. […] Cells were treated with either single inhibitors or combinations thereof at indicated amounts in technical triplicates. The amounts were pre-determined from each inhibitor’s IC50 value and inhibitors were assayed in a defined dilution series and at constant ratio when combined. […] Combination Index (CI) values showing either synergy (< 1) or antagonism (> 1) were calculated with the CompuSyn software (ComboSyn, Inc).

[19] = n.e. = did not suppress growth below 50% in the tested concentration range

`Nc1cc(C(F)(F)F)c(-c2cc(N3CCOCC3)nc(N3CCOCC3)n2)cn1` [BKM120] gave an IC50 ([1]; IGR37-GP (Dabrafenib-resistant), 72 h cell viability) of 1520 nM, an IC50 (A375 cells (parental) [2]; [19]) of 951 nM and an IC50 (501Mel cells (parental) [3]; 501Mel parental, 72 h cell viability) of 1160 nM. The IC50 ([4]; 501Mel-XP (Vemurafenib-resistant), 72 h cell viability) was 818 nM, the IC50 [5] was 1000 nM and the IC50 ([6]; 501Mel-GP (Dabrafenib-resistant), 72 h cell viability) was 919 nM. For the same compound, the IC50 ([7]; IGR37-XP (Vemurafenib-resistant), 72 h cell viability) was 1160 nM, the IC50 (IGR37 cells (parental) [8]; IGR37 parental, 72 h cell viability) was 916 nM and the IC50 [9] was 788 nM.
For `C[C@@H](Oc1cc(-c2cnn(C3CCNCC3)c2)cnc1N)c1c(Cl)ccc(F)c1Cl` [Crizotinib], the IC50 ([1]; Homo sapiens, 72 h) was 6740 nM, the IC50 (A375 cells (parental) [2]; Homo sapiens, A-375, n.e. = did not suppress growth below 50% in the tested concentration range) was 5550 nM and the IC50 (501Mel cells (parental) [3]; Homo sapiens, 72 h) was 6520 nM. It also gave an IC50 ([4]; Homo sapiens, 72 h) of 1350 nM, an IC50 ([5]; Homo sapiens) of 5140 nM and an IC50 ([6]; Homo sapiens, 72 h) of 3280 nM. For the same compound, the IC50 ([7]; Homo sapiens, 72 h) was 5940 nM, the IC50 (IGR37 cells (parental) [8]; Homo sapiens, IGR-37, 72 h) was 6890 nM and the IC50 ([9]; Homo sapiens) was 5100 nM.
`CCc1cnn2c(NCc3ccc[n+]([O-])c3)cc(N3CCCC[C@H]3CCO)nc12` [Dinaciclib] was tested, and the IC50 ([1]; Homo sapiens, 72 h) was 13.6 nM, the IC50 (501Mel cells (parental) [3]; Homo sapiens, 72 h) was 12 nM and the IC50 ([4]; Homo sapiens, 72 h) was 11 nM. For the same compound, the IC50 ([6]; Homo sapiens, 72 h) was 11 nM, the IC50 ([7]; Homo sapiens, 72 h) was 10.2 nM and the IC50 (IGR37 cells (parental) [8]; Homo sapiens, IGR-37, 72 h) was 8.2 nM.
For `CCS(=O)(=O)Nc1ccc2c(c1)/C(=C(/Nc1ccc(CN3CCCCC3)cc1)c1ccccc1)C(=O)N2` [Hesperadin, reference compound], the IC50 ([1]; Homo sapiens, 72 h) was 1040 nM, the IC50 ([7]; Homo sapiens, 72 h) was 770 nM and the “cell viability (kinase inhibitor library screening)” value (501Mel cells (parental) [10]; 1μΜ, 72 h) was 45.1%. For the same compound, the “cell viability (kinase inhibitor library screening)” value (501Mel cells (parental) [10]; 10μΜ, 72 h) was 33.5%, the “cell viability (kinase inhibitor library screening)” value (IGR37 cells (parental) [11]; 1μΜ, 72 h) was 56.8% and the “cell viability (kinase inhibitor library screening)” value (IGR37 cells (parental) [11]; 10μΜ, 72 h) was 48.6%. For the same compound, the “cell viability (kinase inhibitor library screening)” value ([12]; 1μΜ, 72 h) was 35.1%, the “cell viability (kinase inhibitor library screening)” value ([12]; 10μΜ, 72 h) was 2.0% and the “cell viability (kinase inhibitor library screening)” value ([13]; 1μΜ, 72 h) was 13.0%. For the same compound, the “cell viability (kinase inhibitor library screening)” value ([13]; 10μΜ, 72 h) was 9.9%, the “cell viability (kinase inhibitor library screening)” value (A375 cells (parental) [14]; 10μΜ, 72 h) was 1.9% and the “cell viability (kinase inhibitor library screening)” value (A375 cells (parental) [14]; 1μΜ, 72 h) was 7.5%. For the same compound, the “cell viability (kinase inhibitor library screening)” value ([15]; 1μΜ, 72 h) was 52.6%, the “cell viability (kinase inhibitor library screening)” value ([15]; 10μΜ, 72 h) was 12.7% and the “cell viability (kinase inhibitor library screening)” value ([16]; 1μΜ, 72 h) was 81.7%. For the same compound, the “cell viability (kinase inhibitor library screening)” value ([16]; 10μΜ, 72 h) was 46.9%, the “cell viability (kinase inhibitor library screening)” value ([17]; 1μΜ, 72 h) was 13.3% and the “cell viability (kinase inhibitor library screening)” value ([17]; 10μΜ, 72 h) was 3.7%. For the same compound, the “cell viability (kinase inhibitor library screening)” value ([18]; 1μΜ, 72 h) was 70.7%, the “cell viability (kinase inhibitor library screening)” value ([18]; 10μΜ, 72 h) was 3.6% and the IC50 (IGR37 cells (parental) [8]; Homo sapiens, IGR-37, 72 h) was 339 nM.
`O=C(Cc1ccc(-c2ccc(OCCN3CCOCC3)cc2)cn1)NCc1ccccc1` [KX2-391, reference compound] was tested, and the IC50 (A375 cells (parental) [2]; [19]) was 42 nM, the IC50 [5] was 46 nM and the “cell viability (kinase inhibitor library screening)” value (501Mel cells (parental) [10]; 1μΜ, in %) was 16.9. For the same compound, the “cell viability (kinase inhibitor library screening)” value (501Mel cells (parental) [10]; 10μΜ, in %) was 24.4, the “cell viability (kinase inhibitor library screening)” value (IGR37 cells (parental) [11]; 1μΜ, in %) was 11.7 and the “cell viability (kinase inhibitor library screening)” value (IGR37 cells (parental) [11]; 10μΜ, in %) was 19.5. For the same compound, the “cell viability (kinase inhibitor library screening)” value ([12]; 1μΜ, in %) was 45.0, the “cell viability (kinase inhibitor library screening)” value ([12]; 10μΜ, in %) was 36.6 and the “cell viability (kinase inhibitor library screening)” value ([13]; 1μΜ, in %) was 22.8. The “cell viability (kinase inhibitor library screening)” value ([13]; 10μΜ, in %) was 19.7, the “cell viability (kinase inhibitor library screening)” value (A375 cells (parental) [14]; 1μΜ, in %) was 20.3 and the “cell viability (kinase inhibitor library screening)” value (A375 cells (parental) [14]; 10μΜ, in %) was 16.5. For the same compound, the “cell viability (kinase inhibitor library screening)” value ([15]; 1μΜ, in %) was 70.8, the “cell viability (kinase inhibitor library screening)” value ([15]; 10μΜ, in %) was 68.8 and the “cell viability (kinase inhibitor library screening)” value ([16]; 1μΜ, in %) was 15.9. The “cell viability (kinase inhibitor library screening)” value ([16]; 10μΜ, in %) was 19.8, the “cell viability (kinase inhibitor library screening)” value ([17]; 1μΜ, in %) was 21.2 and the “cell viability (kinase inhibitor library screening)” value ([18]; 1μΜ, in %) was 9.9. For the same compound, the “cell viability (kinase inhibitor library screening)” value ([18]; 10μΜ, in %) was 14.1, the IC50 [9] was 37 nM and the “synergistic effects with the BRAF inhibitors Vemurafenib and/or Dabrafenib (in words)” value (A375 cells) was “did not act synergistically”.
